Where a name gives a salt, the structure may show the parent alone.
How the values were obtained:
[1] = system: Rats with left anterior descending coronary artery ligated; assay: Rat myocardial infarct model, left anterior descending coronary artery ligated; format: in vivo; details: 10 mg/kg intraperitoneal daily for 30 days before ligation and 14 days after
Procedure: Rats received a daily intraperitoneal dose of 10 mg/kg 3-[2-phenyl-2-oxoethyl]-4,5-dimethyl-thiazolium salt (compound A) (n=14) or placebo (n=15) for 30 days. The animals then underwent a thoracotomy and the left anterior descending coronary artery ligated. The chest was then closed and the animals allowed to recover for 14 days while continuing to be treated with compound A or placebo. The animals were then sacrificed and the hearts removed for histological examination. The weight of the infarcted tissue was 0.16±0.04 g for the placebo treated animals compared to 0.11±0.05 g for the compound A treated animals (p=0.04).

[2] = system: elderly patients with pulse pressures greater than 60 mm Hg; assay: Phase IIa clinical trial; format: in vivo, human
Source text: When the heart pumps blood into the vascular system, the ability of the arteries to expand helps to push blood through the body. When arteries become stiff, as they do in the natural process of aging, the ability of the arteries to expand is diminished and also has consequences for the heart. The heart has to work harder to pump the blood into the stiff arteries, and eventually hypertrophies (enlarges in size) to accomplish this. A hypertrophied heart is an inefficient pump, and is one of the disorders that leads to congestive heart failure. […] The potential clinical benefit of this is to lessen the effort that the heart must expend to push blood throughout the body. The effect is also believed to contribute to preventing hypertrophy and subsequent inefficiency of the heart, which inefficiency would contribute to congestive heart failure.
Atherosclerosis is a disease that involves deposition of blood lipids in plaque in the arteries throughout the body. In coronary arteries, accumulation of plaque progressively leads to reduced coronary flow, with occlusion of the arteries causing focal death of cardiac tissue (myocardial infarction, heart attack). If the amount of tissue that dies is large enough, death ensures. […] Reducing local deposits of plaque should eventually lessen the risk of myocardial infarction and death due to heart attacks.
Pulse pressure is the difference between systolic and diastolic blood pressure. In a young human, systolic pressure is typically 120 mm Hg and diastolic pressure is 80 mm Hg, resulting in a pulse pressure of 40 mm Hg. With age, in many individuals pulse pressure increases, largely due to the increase in systolic pressure that results from stiff vessel disease. In individuals with pulse pressure greater than 60 mm Hg there is an increased risk of death from cardiovascular morbidities. […] This decrease in pulse pressure was believed to be due primarily to the effect of the agent on lowering the systolic blood pressure.

dog model for diabetes = assay: Dog model for diabetes, ventricular elasticity; format: in vivo
Source text: (§1) Cardiovascular risk correlates more closely with the systolic and the pulse pressure than with the diastolic pressure. In diabetic patients, the cardiovascular risk profile of diabetic patients is strongly correlated to duration of diabetes, glycemic control and blood pressure. Structural matrix proteins contribute to the function of vessels and the heart, and changes in the physical behavior of cardiovascular walls are believed to be important determinants of circulatory function. In elderly individuals, the loss of compliance in the aorta leads to isolated systolic hypertension, which in turn expands the arterial wall and thereby diminishes the dynamic range of elasticity.

cardiovascular tissues = assay: In vivo studies of vascular stiffening and cardiovascular collagen; set-up: species or system rodents, canines and primates
Source text: as §1

Type IV collagen = assay: In situ hybridization studies, Type IV collagen expression
Source text: as §1

TGFbeta = assay: In situ hybridization studies, TGFbeta expression
Source text: as §1

## Cc1sc[n+](CC(=O)c2ccccc2)c1C [compound A, 3-[2-phenyl-2-oxoethyl]-4,5-dimethyl-thiazolium salt]
[1]; n=14, p=0.04 vs placebo
  weight of the infarcted tissue: 0.11 ± 0.05 g
[1]; n=14, p=0.09 vs placebo
  thickness of the ventricular wall in the infarcted zone: 2.56±0.22 mm
[2]; Phase IIa clinical trial
  stiffness of arteries, measured by the ratio of stroke volume (ml) to pulse pressure (mm Hg): showed an ability to reverse the stiffness of arteries
[2]; Phase IIa trial
  amount of circulating triglycerides (lipids): increased the amount of circulating triglycerides
[2]; Phase IIa trial, elderly patients with pulse pressures greater than 60 mm Hg, statistically significant
  pulse pressure: reduced pulse pressure
Dog model for diabetes
  end diastolic pressure and end diastolic volume, indicators of ventricular elasticity: returned to a value at about the mid-point between the disease impaired value and the value for control dogs
Cardiovascular tissues; in vivo
  mass of collagen in cardiovascular tissues: reduction in the mass of collagen in cardiovascular tissues
Cardiovascular tissues; in vivo studies in rodents, canines and primates
  vascular stiffening: substantially ameliorating vascular stiffening
Type IV collagen
  expression of Type IV collagen: reduces the expression of both Type IV collagen and TGFbeta
TGFbeta
  expression of TGFbeta: reduces the expression of both Type IV collagen and TGFbeta

Reference: patent publication US7026342B2, “Method for treating fibrotic diseases or other indications utilizing thiazole, oxazole and imidazole compounds” (Alteon, Inc., priority 2000, dated 2006)
